Structures are written as SMILES.

Chain of TNFα (P01375 77-233 limits assumed): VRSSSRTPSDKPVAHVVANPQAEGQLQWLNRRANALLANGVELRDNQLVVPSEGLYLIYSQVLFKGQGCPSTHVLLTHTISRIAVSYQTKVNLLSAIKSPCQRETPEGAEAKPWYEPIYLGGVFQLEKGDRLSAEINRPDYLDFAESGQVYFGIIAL

This assay deals with TNFα (Homo sapiens, UniProt P01375). In words: TNF induced HEK-Blue assay (NF-kB-driven secreted alkaline phosphatase reporter). The assay is classed as cell-based. The settings on record: TNFα 0.5 ng/mL, HEK-Blue-CD40L cells, 18 h; read-out: TNF induced HEK-Blue assay IC50 value. Put shortly:
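HEK-Blue-CD40L cells (NF-kB-driven SEAP reporter), 20,000/well, added after 30 min pre-incubation of compound (0.004–25 μM final) with TNFα 0.5 ng/mL final at 37 °C; 18 h incubation. SEAP read with QUANTI-Blue at 620 nm; IC50 from 4-parameter logistic fit, normalized to unstimulated and stimulated DMSO controls.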
Regarding `C=Cc1ccc(F)c([C@@H](C)Nc2c(Cl)c(C)nc3ccc(-c4cnc(C(C)(C)O)nc4)cc23)c1` [Example 330, (R)-2-(5-(3-chloro-4-((1-(2-fluoro-5-vinylphenyl)ethyl)amino)-2-methylquinolin-6-yl)pyrimidin-2-yl)propan-2-ol], the IC50 was under 1 µM.
To `Cc1nc2ccc(-c3cnc(C(C)(C)O)nc3)cc2c(N[C@H](C)c2cc(-c3ccccc3)ccc2F)c1Cl` [Example 331, (R)-2-(5-(3-chloro-4-((1-(4-fluoro-[1,1′-biphenyl]—3-yl)ethyl)amino)-2-methylquinolin-6-yl)pyrimidin-2-yl)propan-2-ol] belongs under 1 µM; to `Cc1ccccc1-c1ccc(F)c([C@@H](C)Nc2c(Cl)c(C)nc3ccc(-c4cnc(C(C)(C)O)nc4)cc23)c1` [Example 332, (R)-2-(5-(3-chloro-4-((1-(4-fluoro-2′-methyl-[1,1′-biphenyl]-3-yl)ethyl)amino)-2-methylquinolin-6-yl)pyrimidin-2-yl)propan-2-ol], under 1 µM; to `Cc1nc2ccc(-c3cnc(C(C)(C)O)nc3)cc2c(N[C@H](C)c2cc(C3=CCCC3)ccc2F)c1Cl` [Example 333, (R)-2-(5-(3-chloro-4-((1-(5-(cyclopent-1-en-1-yl)-2-fluorophenyl)ethyl)amino)-2-methylquinolin-6-yl)pyrimidin-2-yl)propan-2-ol], under 1 µM.
As for `Cc1ccc(F)c([C@@H](C)Nc2c(Cl)c(C)nc3ccc(-c4cnc(C(C)(C)O)nc4)cc23)c1` [Example 334, (R)-2-(5-(3-chloro-4-((1-(2-fluoro-5-methylphenyl)ethyl)amino)-2-methylquinolin-6-yl)pyrimidin-2-yl)propan-2-ol], the half-inhibitory concentration (IC50) is under 1 µM.
Next, `Cc1nc2ccc(-c3cnc(C(C)(C)O)nc3)cc2c(N[C@H](C)c2cc(-c3cn[nH]c3)ccc2F)c1Cl` [Example 335, (R)-2-(5-(3-chloro-4-((1-(2-fluoro-5-(1H-pyrazol-4-yl)phenyl)ethyl)amino)-2-methylquinolin-6-yl)pyrimidin-2-yl) propan-2-ol]: under 1 µM; `Cc1nc2ccc(-c3cnc(C(C)(C)O)nc3)cc2c(N[C@H](C)c2cc(-c3cc[nH]n3)ccc2F)c1Cl` [Example 336, (R)-2-(5-(3-chloro-4-((1-(2-fluoro-5-(1H-pyrazol-3-yl)phenyl)ethyl)amino)-2-methylquinolin-6-yl)pyrimidin-2-yl)propan-2-ol]: under 1 µM; `C[C@@H](Nc1c(Cl)cnc2ccc(-c3cnc(C(C)(C)O)nc3)cc12)c1cc(C2=CCN(C(=O)OC(C)(C)C)CC2)ccc1F` [Example 337, tert-butyl (R)-4-(3-(1-((3-chloro-6-(2-(2-hydroxypropan-2-yl)pyrimidin-5-yl)quinolin-4-yl)amino)ethyl)-4-fluorophenyl)-3,6-dihydropyridine-1(2H)-carboxylate]: 1 to 10 µM.
To `C[C@@H](Nc1c(Cl)cnc2ccc(-c3cnc(C(C)(C)O)nc3)cc12)c1cc(C2=CCNCC2)ccc1F` [Example 338, (R)-2-(5-(3-chloro-4-((1-(2-fluoro-5-(1,2,3,6-tetrahydropyridin-4-yl)phenyl)ethyl)amino)quinolin-6-yl)pyrimidin-2-yl)propan-2-ol] belongs under 1 µM.
For the compound `C[C@@H](Nc1c(Cl)cnc2ccc(-c3cnc(C(C)(C)O)nc3)cc12)c1cc(-c2cnn(C)c2)ccc1F` [Example 339, (R)-2-(5-(3-chloro-4-((1-(2-fluoro-5-(1-methyl-1H-pyrazol-4-yl)phenyl)ethyl)amino)quinolin-6-yl)pyrimidin-2-yl)propan-2-ol], the IC50 is under 1 µM.
Next, `C[C@@H](Nc1c(Cl)cnc2ccc(-c3cnc(C(C)(C)O)nc3)cc12)c1cc(-c2cncnc2)ccc1F` [Example 340, (R)-2-(5-(3-chloro-4-((1-(2-fluoro-5-(pyrimidin-5-yl)phenyl)ethyl)amino)quinolin-6-yl)pyrimidin-2-yl) propan-2-ol]: under 1 µM.

As a reminder, the IC50 is the midpoint of a concentration-inhibition curve.
